How the values were obtained:
infectious SARS-CoV-2 [1] = assay: MTT antiviral assay: protection against viral cytopathic effect in Vero E6 cells; format: cell-based
infectious SARS-CoV-2 [2] = format: cell-based
SARS-CoV-2 M^pro = SARS-CoV-2 M^pro (Severe acute respiratory syndrome coronavirus 2, UniProt P0DTD1); assay: biochemical; format: biochemical; details: for IC50: IC50, inhibition of SARS-CoV-2 Mpro, kinetic assay, 100 nM Mpro, triplicate, footnote a: fluorescence of compound interfered with assay
[3] = tested on: noninfectious SARS-CoV-2 replicon; format: cell-based; details: 5 in combination with remdesivir, MacSynergy II
Vero E6 cells = details: MTT, no virus
[4] = tested on: normal human bronchial epithelial cells (NHBE); details: MTT

SMILES	EC50 MTT (infectious SARS-CoV-2 [1])	EC50 Plaque (infectious SARS-CoV-2 [2])	IC50 (SARS-CoV-2 M^pro)	other results
O=c1[nH]cc(-c2cc(-c3cc(Cl)cc(OCc4ccccc4)c3)c(=O)n(-c3cccnc3)c2)c(=O)[nH]1 [Compound 14]	not in the MTT assay	antiviral activity was found		
CCCOc1cc(Cl)cc(-c2cc(-c3ccccc3C#N)cn(-c3cccnc3)c2=O)c1 [Compound 5]				factor of improvement in potency (SARS-CoV-2 M^pro; 5 over 4): ca. 30; antagonism volume [3]: 0 μM^2%; mean synergy volume [3]: 30.8 μM^2%
N#Cc1ccccc1-c1cc(-c2cccc(Cl)c2)c(=O)n(-c2cccnc2)c1 [Compound 2]			9.99 ± 2.5 µM	
O=c1[nH]cc(-c2cc(-c3cc(Cl)c(F)c(OCc4ccccc4Cl)c3)c(=O)n(-c3cccnc3)c2)c(=O)[nH]1 [Compound 23]	lacked antiviral activity	showed activity		
O=c1[nH]cc(-c2cc(-c3cc(Cl)cc(OCc4ccccc4Cl)c3)c(=O)n(-c3cccnc3)c2)c(=O)[nH]1 [Compound 21]	lacked antiviral activity	showed activity		
N#Cc1ccccc1-c1cc(-c2cc(Cl)cc(OCC3CC3)c2)c(=O)n(-c2cccnc2)c1 [Compound 26]				CC50 Vero E6 (Vero E6 cells): no cytotoxicity; CC50 NHBE [4]: no cytotoxicity
O=c1[nH]cc(-c2cc(-c3cccc(Cl)c3)c(=O)n(-c3cccnc3)c2)c(=O)[nH]1 [Compound 3]			6.38 ± 1.21 µM	
O=c1[nH]cc(-c2cc(-c3cc(Cl)cc(OCC4CC4)c3)c(=O)n(-c3cccnc3)c2)c(=O)[nH]1 [Compound 24]				fold boost in potency (SARS-CoV-2 M^pro; 24 vs 11, uracil series): 3
N#Cc1ccccc1-c1cc(-c2cc(Cl)cc(Cl)c2)c(=O)n(-c2cccnc2)c1 [Compound 4]			4.02 ± 1.36 µM	factor of enhancement in inhibitory activity (SARS-CoV-2 M^pro; 4 vs 2, addition of second chlorine): ~2
